Experimental data: ChEMBL document CHEMBL1201862, “PubChem BioAssay data set” (2004)
Activity calls are given as the source filed them.

Legend:
HeLa = test: HeLa cell cytotoxicity, dose response, cytotoxicity control for MITF activator project, CellTiter-Glo luminescence, cherry-pick samples (AID 540259); format: functional, cell-based; details: Homo sapiens
[1] = biological target: 26S proteasome non-ATPase regulatory subunit 14 (Homo sapiens, UniProt O00487); test: inhibition of proteasome subunit RPN11 – biochemical, fluorescence polarization, uHTS hits, confirmation (AID 602368); format: functional
26S proteasome non-ATPase regulatory subunit 14, sequence (O00487 whole entry): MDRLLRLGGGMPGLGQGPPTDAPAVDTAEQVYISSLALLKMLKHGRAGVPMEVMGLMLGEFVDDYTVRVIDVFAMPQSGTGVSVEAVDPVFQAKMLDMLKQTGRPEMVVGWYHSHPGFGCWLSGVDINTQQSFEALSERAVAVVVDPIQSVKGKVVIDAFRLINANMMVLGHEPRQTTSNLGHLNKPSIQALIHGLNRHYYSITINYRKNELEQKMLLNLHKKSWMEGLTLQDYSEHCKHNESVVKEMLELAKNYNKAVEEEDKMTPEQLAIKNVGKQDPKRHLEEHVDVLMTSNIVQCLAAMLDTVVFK

Prothrombin = Prothrombin (Bos taurus, UniProt P00735); test: thrombin inhibition, dose response, biochemical, fluorescence polarization, uHTS hits (AID 602369); format: functional
[2] = biological target: Dual specificity tyrosine-phosphorylation-regulated kinase 1A (Rattus norvegicus, UniProt Q63470); format: biochemical, Homo sapiens
[3] = biological target: 72 kDa type IV collagenase (Homo sapiens, UniProt P08253); test: Dose Response validation of uHTS RPN11 inhibitor hits using a MMP-2 Fluorescence assay.; format: functional
72 kDa type IV collagenase, sequence (P08253 whole entry): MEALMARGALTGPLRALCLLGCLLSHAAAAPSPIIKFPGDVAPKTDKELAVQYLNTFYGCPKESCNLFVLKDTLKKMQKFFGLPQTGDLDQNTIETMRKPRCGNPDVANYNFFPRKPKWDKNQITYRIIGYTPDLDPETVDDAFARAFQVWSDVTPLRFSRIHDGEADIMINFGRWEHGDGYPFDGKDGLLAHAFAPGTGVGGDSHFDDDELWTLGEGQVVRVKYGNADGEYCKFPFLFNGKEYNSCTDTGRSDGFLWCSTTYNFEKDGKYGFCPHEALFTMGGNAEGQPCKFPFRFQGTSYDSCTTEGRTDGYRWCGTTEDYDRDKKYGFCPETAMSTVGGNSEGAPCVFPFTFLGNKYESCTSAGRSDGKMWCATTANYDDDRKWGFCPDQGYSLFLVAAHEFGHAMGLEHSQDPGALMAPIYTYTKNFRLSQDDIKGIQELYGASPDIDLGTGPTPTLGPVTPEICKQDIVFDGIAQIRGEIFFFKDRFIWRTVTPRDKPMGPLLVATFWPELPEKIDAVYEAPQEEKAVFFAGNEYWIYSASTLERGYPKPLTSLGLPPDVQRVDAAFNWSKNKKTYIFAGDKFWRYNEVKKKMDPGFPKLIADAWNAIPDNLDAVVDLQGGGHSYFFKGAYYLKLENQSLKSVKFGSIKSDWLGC

Vero = test: cells; format: functional; details: Chlorocebus sabaeus
[4] = growth suppression of PTEN-null colon cells, dose response, cell-based, HCT116 PTEN knockout (AID 1047); format: functional;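 note: HCT116 colon tumor cells with PTEN knocked out; cells exposed to compound for 60 hours before readout; potency for loss of cell viability measured by luminescence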
[5] = growth suppression of beta-catenin-knockout colon cells, dose response, cell-based, HCT116, human colon tumor (AID 1045); format: functional;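 note: HCT116 colon tumor cells with beta catenin knocked out; cells exposed to compound for 60 hours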
Caspase-3 = biological target: T1, Caspase-3 (Homo sapiens, UniProt P42574); format: functional;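 note: Dose-response selectivity test against caspase-3 for candidate inhibitors of sentrin-specific proteases (SENPs)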
T1 sequence (P42574 whole entry): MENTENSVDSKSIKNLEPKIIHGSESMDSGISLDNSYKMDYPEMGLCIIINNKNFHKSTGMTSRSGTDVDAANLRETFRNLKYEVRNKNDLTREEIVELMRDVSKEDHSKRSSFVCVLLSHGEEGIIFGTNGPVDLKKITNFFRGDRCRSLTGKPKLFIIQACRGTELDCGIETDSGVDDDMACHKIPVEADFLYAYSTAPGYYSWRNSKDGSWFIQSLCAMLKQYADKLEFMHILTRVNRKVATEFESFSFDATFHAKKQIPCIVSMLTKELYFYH

[6] = biological target: T2, Sentrin-specific protease 7 (Homo sapiens, UniProt Q9BQF6); format: functional;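 note: Luminescence-based dose-response confirmation of ultra-high-throughput screening hits, measuring inhibition of SENP7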
T2 sequence (Q9BQF6 whole entry): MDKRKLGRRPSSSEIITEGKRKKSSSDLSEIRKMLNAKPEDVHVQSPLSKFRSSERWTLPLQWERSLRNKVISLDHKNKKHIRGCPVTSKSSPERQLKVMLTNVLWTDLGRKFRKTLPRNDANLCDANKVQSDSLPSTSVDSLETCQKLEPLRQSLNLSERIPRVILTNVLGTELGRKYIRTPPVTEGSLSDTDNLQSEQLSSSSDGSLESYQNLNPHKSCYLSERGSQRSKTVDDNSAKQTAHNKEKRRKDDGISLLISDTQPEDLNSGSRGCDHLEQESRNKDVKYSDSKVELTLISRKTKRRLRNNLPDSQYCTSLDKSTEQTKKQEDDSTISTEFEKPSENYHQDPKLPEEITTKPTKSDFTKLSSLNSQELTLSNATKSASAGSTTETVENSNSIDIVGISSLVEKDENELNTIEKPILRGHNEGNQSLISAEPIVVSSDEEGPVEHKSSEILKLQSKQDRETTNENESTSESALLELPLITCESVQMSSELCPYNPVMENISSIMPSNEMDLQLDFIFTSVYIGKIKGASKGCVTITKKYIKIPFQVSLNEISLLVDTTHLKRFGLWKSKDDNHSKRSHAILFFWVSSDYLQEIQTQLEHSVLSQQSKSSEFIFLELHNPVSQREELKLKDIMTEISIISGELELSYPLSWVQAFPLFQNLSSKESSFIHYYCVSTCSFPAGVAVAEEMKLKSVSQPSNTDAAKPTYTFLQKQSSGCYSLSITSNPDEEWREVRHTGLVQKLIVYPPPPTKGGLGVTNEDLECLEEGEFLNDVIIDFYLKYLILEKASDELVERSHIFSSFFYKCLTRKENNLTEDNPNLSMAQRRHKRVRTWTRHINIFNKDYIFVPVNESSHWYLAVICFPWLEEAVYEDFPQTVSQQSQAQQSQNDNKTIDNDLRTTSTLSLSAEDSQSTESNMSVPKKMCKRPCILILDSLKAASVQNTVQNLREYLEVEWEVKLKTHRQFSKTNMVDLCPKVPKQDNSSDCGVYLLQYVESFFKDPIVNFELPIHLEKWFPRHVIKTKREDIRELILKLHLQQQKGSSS

[7] = biological target: T3, Sentrin-specific protease 6 (Homo sapiens, UniProt Q9GZR1); format: functional;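 note: Luminescence-based dose-response confirmatory assay of SENP6 inhibition, following up an ultra-high-throughput screen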
T3 sequence (Q9GZR1 whole entry): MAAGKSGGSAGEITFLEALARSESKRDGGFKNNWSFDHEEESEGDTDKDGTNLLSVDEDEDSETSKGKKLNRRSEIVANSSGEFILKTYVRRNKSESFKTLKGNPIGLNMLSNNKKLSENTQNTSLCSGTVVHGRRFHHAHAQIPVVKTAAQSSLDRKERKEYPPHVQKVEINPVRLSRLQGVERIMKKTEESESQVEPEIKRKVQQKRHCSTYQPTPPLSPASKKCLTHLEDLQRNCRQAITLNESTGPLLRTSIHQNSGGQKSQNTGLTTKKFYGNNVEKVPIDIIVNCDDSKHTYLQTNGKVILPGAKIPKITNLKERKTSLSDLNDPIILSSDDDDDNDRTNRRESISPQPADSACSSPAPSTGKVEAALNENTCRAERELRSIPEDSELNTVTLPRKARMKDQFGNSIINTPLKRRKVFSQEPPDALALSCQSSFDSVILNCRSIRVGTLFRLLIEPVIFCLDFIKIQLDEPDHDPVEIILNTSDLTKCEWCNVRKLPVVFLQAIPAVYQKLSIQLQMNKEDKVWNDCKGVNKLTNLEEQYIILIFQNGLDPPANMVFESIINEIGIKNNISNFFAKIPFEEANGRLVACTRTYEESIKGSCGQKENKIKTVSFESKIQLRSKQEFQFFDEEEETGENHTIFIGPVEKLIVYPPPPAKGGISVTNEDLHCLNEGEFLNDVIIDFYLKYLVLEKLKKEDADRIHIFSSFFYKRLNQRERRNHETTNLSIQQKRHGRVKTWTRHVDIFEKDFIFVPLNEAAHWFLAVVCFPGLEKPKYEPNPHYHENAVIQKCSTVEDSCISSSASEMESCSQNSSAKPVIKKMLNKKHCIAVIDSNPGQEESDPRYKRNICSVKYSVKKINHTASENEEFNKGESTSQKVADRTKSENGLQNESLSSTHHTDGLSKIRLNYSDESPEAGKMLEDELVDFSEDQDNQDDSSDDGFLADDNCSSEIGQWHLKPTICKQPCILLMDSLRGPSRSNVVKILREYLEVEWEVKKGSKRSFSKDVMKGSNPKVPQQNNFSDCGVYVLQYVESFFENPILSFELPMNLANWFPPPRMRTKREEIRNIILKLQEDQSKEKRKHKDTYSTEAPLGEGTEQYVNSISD

[8] = biological target: T4, Sentrin-specific protease 8 (Homo sapiens, UniProt Q96LD8); format: functional;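 note: luminescence read-out of SENP8 inhibition, dose-response confirmation following an ultra-high-throughput screen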
T4 sequence (Q96LD8 whole entry): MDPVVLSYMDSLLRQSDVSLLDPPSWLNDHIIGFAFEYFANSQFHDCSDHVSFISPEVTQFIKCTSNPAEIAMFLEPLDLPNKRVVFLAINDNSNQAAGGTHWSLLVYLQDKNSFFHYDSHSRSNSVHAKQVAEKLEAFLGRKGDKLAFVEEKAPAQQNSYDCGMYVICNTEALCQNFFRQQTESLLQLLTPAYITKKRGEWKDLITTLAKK

[9] = inhibitors of intracellular T. cruzi replication, confirmation, NIH3T3 host cells, beta-gal luminescence (AID 2044); format: functional, cell-based;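 note: intracellular parasites grown in NIH/3T3 mouse fibroblasts as host cells; luminescent beta-galactosidase reporter signal from transgenic T. cruzi replicating inside host cells; inhibitors lower the luminescence signal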
[10] = cytotoxicity toward NIH3T3 fibroblasts, dose response, counter-screen, cell-based, ATP luminescence, mouse fibroblasts (AID 2010); format: functional;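 note: cells exposed to compound for about 90 hours before reading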
Hexokinase HKDC1 = biological target: T5, Hexokinase HKDC1 (Homo sapiens, UniProt Q2TB90); test: HKDC1 hexokinase inhibitors, SAR follow-up, biochemical, set 2 (AID 588355); format: functional
T5 sequence (Q2TB90 whole entry): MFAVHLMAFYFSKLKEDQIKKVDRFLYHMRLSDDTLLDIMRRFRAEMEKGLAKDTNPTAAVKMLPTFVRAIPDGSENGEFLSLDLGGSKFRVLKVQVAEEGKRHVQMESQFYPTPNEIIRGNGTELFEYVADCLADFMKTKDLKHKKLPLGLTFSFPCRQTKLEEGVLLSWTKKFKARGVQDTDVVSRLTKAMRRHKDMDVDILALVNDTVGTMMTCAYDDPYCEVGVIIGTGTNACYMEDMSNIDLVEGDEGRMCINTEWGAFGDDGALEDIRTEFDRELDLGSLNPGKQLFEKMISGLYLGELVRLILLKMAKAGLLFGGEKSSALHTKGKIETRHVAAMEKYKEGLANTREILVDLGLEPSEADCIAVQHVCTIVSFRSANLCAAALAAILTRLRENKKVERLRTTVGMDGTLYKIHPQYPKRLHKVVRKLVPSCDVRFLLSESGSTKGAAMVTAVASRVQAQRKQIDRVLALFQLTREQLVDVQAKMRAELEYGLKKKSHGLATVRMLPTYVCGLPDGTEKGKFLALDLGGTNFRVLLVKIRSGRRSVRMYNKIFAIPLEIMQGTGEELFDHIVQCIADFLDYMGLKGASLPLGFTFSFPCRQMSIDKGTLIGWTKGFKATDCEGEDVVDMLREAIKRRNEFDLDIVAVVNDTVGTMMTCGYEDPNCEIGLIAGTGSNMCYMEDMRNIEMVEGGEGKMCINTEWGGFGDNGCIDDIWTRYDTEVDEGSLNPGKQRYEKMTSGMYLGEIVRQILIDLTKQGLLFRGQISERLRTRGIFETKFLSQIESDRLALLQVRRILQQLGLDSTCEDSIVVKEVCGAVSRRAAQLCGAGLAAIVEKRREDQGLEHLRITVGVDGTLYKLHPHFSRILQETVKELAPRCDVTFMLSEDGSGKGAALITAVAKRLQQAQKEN

Hexokinase-1 = Hexokinase-1 (Homo sapiens, UniProt P19367); test: HK1 enzyme inhibition by HKDC1 hits, SAR follow-up, selectivity assay for HKDC1 inhibitor project, biochemical, set 2, resazurin fluorescence coupled readout (AID 588356); format: functional
Hexokinase-1, sequence (P19367 whole entry): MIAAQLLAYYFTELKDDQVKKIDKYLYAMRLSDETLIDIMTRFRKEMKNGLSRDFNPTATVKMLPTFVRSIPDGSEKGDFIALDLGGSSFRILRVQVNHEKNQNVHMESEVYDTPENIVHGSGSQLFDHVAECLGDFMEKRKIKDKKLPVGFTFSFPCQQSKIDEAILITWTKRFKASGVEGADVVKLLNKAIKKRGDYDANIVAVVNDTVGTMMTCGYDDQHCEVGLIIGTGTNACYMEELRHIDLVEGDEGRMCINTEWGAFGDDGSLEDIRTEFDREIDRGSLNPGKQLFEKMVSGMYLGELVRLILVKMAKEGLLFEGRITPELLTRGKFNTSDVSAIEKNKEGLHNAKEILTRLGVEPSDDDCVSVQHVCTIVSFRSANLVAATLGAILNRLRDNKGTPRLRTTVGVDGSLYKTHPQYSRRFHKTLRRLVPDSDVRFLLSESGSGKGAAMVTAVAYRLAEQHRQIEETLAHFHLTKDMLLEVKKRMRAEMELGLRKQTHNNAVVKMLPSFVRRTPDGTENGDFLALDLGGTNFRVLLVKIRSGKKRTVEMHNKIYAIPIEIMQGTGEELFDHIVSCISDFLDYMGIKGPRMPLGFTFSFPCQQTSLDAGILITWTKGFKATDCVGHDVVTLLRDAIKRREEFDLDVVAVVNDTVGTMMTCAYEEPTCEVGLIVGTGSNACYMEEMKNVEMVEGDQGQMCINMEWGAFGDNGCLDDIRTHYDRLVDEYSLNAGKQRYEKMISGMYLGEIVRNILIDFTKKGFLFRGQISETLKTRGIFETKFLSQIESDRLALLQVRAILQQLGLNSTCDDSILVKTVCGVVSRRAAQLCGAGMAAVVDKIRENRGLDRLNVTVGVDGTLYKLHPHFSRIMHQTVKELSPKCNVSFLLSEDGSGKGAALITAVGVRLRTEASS

SUMO E1/E2 = SUMO E1/E2 (Homo sapiens, UniProt P63279+Q9UBE0+Q9UBT2); test: SAR analysis of SUMOylation using HTRF in an in-Vitro dose response assay. [Related pubchem assays (depositor defined):AID2006, AID2011, AID2018, AID2069, AID2658]; format: functional
SUMO E1/E2, sequence (Q9UBE0 whole entry): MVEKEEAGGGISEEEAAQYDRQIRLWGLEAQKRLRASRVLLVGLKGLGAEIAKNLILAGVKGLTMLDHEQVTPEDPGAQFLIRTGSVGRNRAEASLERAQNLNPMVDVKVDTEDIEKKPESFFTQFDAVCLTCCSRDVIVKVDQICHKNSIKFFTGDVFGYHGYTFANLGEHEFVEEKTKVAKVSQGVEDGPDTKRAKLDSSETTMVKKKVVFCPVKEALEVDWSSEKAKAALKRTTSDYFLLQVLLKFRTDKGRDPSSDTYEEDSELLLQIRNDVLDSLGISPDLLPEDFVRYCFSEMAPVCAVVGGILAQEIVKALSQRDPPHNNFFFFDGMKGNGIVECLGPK
SUMO E1/E2, sequence (Q9UBT2 whole entry): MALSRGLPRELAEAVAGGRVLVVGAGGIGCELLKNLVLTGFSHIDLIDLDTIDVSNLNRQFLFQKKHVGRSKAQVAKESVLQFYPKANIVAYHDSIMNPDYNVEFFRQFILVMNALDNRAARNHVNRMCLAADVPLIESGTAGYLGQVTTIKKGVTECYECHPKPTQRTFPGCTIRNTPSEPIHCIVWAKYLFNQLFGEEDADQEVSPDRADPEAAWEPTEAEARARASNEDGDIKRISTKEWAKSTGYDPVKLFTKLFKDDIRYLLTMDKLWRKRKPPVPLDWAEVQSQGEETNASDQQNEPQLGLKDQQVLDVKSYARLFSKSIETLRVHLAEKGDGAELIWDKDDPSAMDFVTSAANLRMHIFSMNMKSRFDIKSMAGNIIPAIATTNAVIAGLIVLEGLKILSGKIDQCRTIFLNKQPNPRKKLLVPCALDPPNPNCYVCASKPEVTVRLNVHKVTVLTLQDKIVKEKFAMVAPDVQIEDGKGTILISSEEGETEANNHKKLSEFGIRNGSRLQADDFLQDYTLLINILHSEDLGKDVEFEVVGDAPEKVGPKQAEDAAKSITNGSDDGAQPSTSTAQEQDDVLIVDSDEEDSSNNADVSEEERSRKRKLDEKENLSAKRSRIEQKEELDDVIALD
SUMO E1/E2, sequence (P63279 whole entry): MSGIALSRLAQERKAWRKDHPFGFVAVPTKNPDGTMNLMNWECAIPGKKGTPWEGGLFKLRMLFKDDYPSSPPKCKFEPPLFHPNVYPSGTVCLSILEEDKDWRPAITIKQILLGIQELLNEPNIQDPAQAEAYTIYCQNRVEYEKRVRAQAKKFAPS

Streptococcus = test: Group A Streptococcus viability loss, dose response, counter-screen for streptokinase expression inhibitor project, luminescence, BacTiterGlo (AID 1915); format: functional, organism-based;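 note: potency for reduction of bacterial viability or growth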
[11] = NIH-3T3 fibroblast cytotoxicity, dose response, cytotoxicity control, cell-based, fluorescence, Alamar Blue, secondary assay (AID 2327); format: functional;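 note: NIH-3T3 mouse fibroblasts cultured with fluconazole at 8 µg/mL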
Streptokinase A = biological target: T6, Streptokinase A (Streptococcus pyogenes serotype M1, UniProt P10520); test: S. pyogenes streptokinase expression inhibitors, potency, dose response, plasminogen activation absorbance, OD405 (AID 1914); format: functional, Streptococcus pyogenes M1 GAS;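 note: secreted streptokinase activity via plasminogen activation per viability signal from cell pellet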
T6 sequence (P10520 whole entry): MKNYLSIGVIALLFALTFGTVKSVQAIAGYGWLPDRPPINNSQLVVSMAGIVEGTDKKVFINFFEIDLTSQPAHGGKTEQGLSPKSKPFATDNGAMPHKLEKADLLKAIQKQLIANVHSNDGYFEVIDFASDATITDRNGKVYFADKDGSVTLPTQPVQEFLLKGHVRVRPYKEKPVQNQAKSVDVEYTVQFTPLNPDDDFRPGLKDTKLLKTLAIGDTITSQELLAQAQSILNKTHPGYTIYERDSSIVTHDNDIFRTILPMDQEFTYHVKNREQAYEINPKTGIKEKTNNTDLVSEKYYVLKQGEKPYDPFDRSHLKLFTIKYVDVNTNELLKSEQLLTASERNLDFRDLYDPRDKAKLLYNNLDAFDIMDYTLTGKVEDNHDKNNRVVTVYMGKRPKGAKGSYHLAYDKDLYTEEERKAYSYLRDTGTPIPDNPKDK

[12] = C. albicans growth with fluconazole, confirmation, fluorescence, retest (AID 2467); format: functional, cell-based
Escherichia coli = test: microbe, parasite or virus in culture
[13] = tested on: Streptococcus sp. 'group A'; test: growth inhibition of control SK(-) GAS strain, dose response, counter-screen for streptokinase expression inhibitor project, luminescence, kanamycin, BacTiterGlo, confirmation (AID 1900); format: functional, organism-based

With `Cc1cc(C)c2nc(NCc3ccccc3O)sc2c1` the AC50 (HeLa) was 42.4 µM (active).

In the case of `Cc1occc1C(=O)/C(C#N)=C/c1ccc(O)c(Br)c1`, the IC50 [1] is reported as 9.83 µM (active), the IC50 (Prothrombin) is reported as 12.1 µM (active) and the AC50 [2] is reported as 7.25 µM (active). For the same compound, the IC50 [3] was > 100 µM (inactive).

In the case of `CC1(C)CC(/C=C/c2ccccc2)=Nc2ccccc2N1`, the AC50 (HeLa) is reported as 37.3 µM (active).

With `CCN1CCc2c(C#N)c(N3CCCCC3)nc(NCc3ccccc3)c2C1` the CC50 (Vero) was > 25 µM (active), the EC50 [4] was 20.1 µM (active) and the EC50 [5] was 17.9 µM (active).

In the case of `COc1c(O)ccc(/C=C(\C#N)c2nc3ccccc3[nH]2)c1[N+](=O)[O-]`, the IC50 (Caspase-3) is reported as 31.1 µM (active), the AC50 [2] is reported as 2.77 µM (active) and the IC50 [6] is reported as 15.1 µM (active). For the same compound, the IC50 [7] was 25.9 µM (active) and the IC50 [8] was 35.9 µM (active).

In the case of `Cc1ccc(Sc2nnc(Cc3ccccc3)c3ccccc23)cc1`, the CC50 (Vero) is reported as > 25 µM (active), the EC50 [9] is reported as 1.95 µM (active) and the EC50 [10] is reported as > 60 µM (not active).

In the case of `COc1ccc2c(c1)C(NC(C)=O)C(=O)N2CCN1CCOCC1` (stereo not drawn), the IC50 (Hexokinase HKDC1) is reported as 8.31 µM (active), the IC50 (Hexokinase-1) is reported as > 80 µM (inactive) and the IC50 (SUMO E1/E2) is reported as 9.45 µM (active).

For `COc1cc2c(cc1OC)-c1cc(Nc3ncn[nH]3)nc(=O)n1CC2`, the IC50 (Hexokinase HKDC1) was > 80 µM (inactive) and the IC50 (Hexokinase-1) was > 80 µM (inactive).

For `C/C(=C\C(=O)OCCCCCCCCC(=O)O)C[C@@H]1OC[C@H](C[C@@H]2O[C@H]2[C@@H](C)[C@H](C)O)[C@@H](O)[C@H]1O` [MUPIROCIN], the EC50 (Streptococcus) was < 0.06 µM (active), the EC50 [11] was > 150 µM (inactive) and the EC50 (Streptokinase A) was 0.423 µM (active). The EC50 [12] was > 38 µM (not active), the AC50 (Escherichia coli) was 4.99 µM (active) and the EC50 [13] was < 0.06 µM (active).
